Measurements from US20120157396A1, “PYRAZINAMIDE FOR IMMUNOSTIMULATION AND THE TREATMENT OF LEISHMANIASES” (priority 2009, published 2012).

How the values were obtained:
Leishmania = test: J774 cells infected with old- and new-world Leishmania species, 48 hr post treatment; format: cell-based
Source text: FIG. 8. Effect of PZA on J774 cells infected with Leishmania 48 hr post treatment. Data expressed as % survival compared to untreated control (100% survival). Mean±SD of 3 independent determinations.
FIG. 9. A. Effect of 5-Chloro PZA on J774 cells infected with Leishmania, 48 hr post treatment. Data expressed as % survival compared to untreated control (100% survival). Mean±SD of 3 independent determinations. […] B. Cytokine IL-2 production—5-Chloro PZA stimulated 2× more proinflammatory cytokines than PZA, even in Leishmania-infected macrophages (similar results with IFNγ, TNFα, NO).

[1] = test system: bone marrow-derived macrophages; test: Cytokine and NO production in bone marrow-derived macrophages; format: cell-based, C57BL/6 mice; set-up: unit not given here; conditions: macrophage, drug 100 μM
Description: Bone marrow cells were obtained and were grown in the presence of the cytokines M-CSF or GM-CSF to induce differentiation of macrophages or dendritic cells, respectively. The study of the immune response of dendritic cells was included because of their importance for the initiation of the immune response against L. major. […] Again, this effect was rescued by the treatment of macrophages with compounds of formula I, namely, either PZA or 5-Cl PZA.
Parasite and cell culture. L. major clone V1 (MHOM/IL/80/Friedlin) promastigotes were grown at 26° C. in medium 199 supplemented with 20% heat-inactivated fetal calf serum (FCS, Gemini, Sacramento), 100 U/ml penicillin, 100 μg/ml streptomycin, 2 mM L-glutamine, 40 mM Hepes, 0.1 mM adenine (in 50 mM Hepes) and […] hemin (in 50% triethanolamine). The macrophage murine cell line J774 (Cat. No. TIB-67TM) was cultured in DMEM (Sigma-Aldrich, St. Louis, Mo.) with 10% FCS, 100 U/ml penicillin, 100 μg/ml streptomycin and 2 mM glutamine (Sigma-Aldrich) at 37° C. under 5% CO2 atmosphere. Culture medium was changed twice per week. Subcultures were performed when monolayers covered 90% of the bottom of culture flasks. For experiments involving macrophages and dendritic cells, bone marrow was obtained from C57BL/6 mouse femurs and grown for 6-8 days in RPMI 1640 supplemented as above in the presence of 10% L929 conditioned medium (to generate macrophages) or 20 ng/ml GM-CSF (to generate dendritic cells).
J774 cells or bone marrow-derived cells were seeded onto 24-well plates at a concentration of 5×10^5 cells/ml. Twenty-four hours later, PZA was added to the wells at different concentrations in the absence or presence of L. major (1:5 parasite ratio). In some experiments, J774 cells were treated with amphotericin B (0.1, 0.5, or 1 μg/ml). Two control groups were also included in this experiment: a positive control of activation consisting in a group of uninfected cells treated with 100 ng/ml LPS and 10 IU IFN-γ as a positive control of activation, and a negative control of activation, consisting in uninfected, untreated cells. Cell cultures were maintained overnight, and then cultured for an additional 6 h with brefeldin A (10 μg/ml), harvested by scraping and fixed in 2% paraformaldehyde. Prior to staining, cells were incubated with an anti-Fc III/II receptor and 10% normal mouse serum (NMS) in PBS containing 0.1% BSA, 0.01% NaN3. Cells were permeabilized with saponin and stained for the surface markers CD80 (clone 16-10A1), CD86 (clone GL1), MHCI (clone 28-14-8), MHCII (clone M5/114.15.2) and for the cytokines IL-12p40/p70 (clone C17.8) and IL-10 (clone JESS-16E3). Incubations were carried out for 30 min on ice. All antibodies were purchased from BD Biosciences or eBioscience. For each sample, at least 50,000 cells were analyzed. The data were collected and analyzed using CELLQuest software and a FACScalibur flow cytometer (Becton Dickinson, San Jose, Calif.).

L. major = format: in vivo, C57BL/6 mice
Description: Mouse Model of CL. To assess the in vivo efficacy of PZA in a relevant in vivo model of cutaneous leishmaniasis, C57BL/6 mice were intradermally infected with 5×10^5 L. major parasites per ear (n=6 mice, 12 ears). One day after infection, mice were treated orally with PZA at several concentrations (900-150 mg/kg) for four weeks, five days a week. […] Parasite burden in ears was determined at 5 weeks post infection in all experimental groups.
Mice (n=6) were anesthetized with isoflurane (Abbott Laboratories, Chicago, Ill.) and vaccinated intradermally in both ears with 5×10^5 L. major promastigotes in a volume of 10 μl using a 27½ G needle. PZA was diluted in water and administered by oral gavage in a 0.2 ml volume. A control group was treated with water containing DMSO (3.8%). The timetable for the experiment was as follows: day 0, infection; days 1-5, 8-12, 15-19 and 22-26, drug administration, and day 70, sacrifice. Lesion size was monitored 1-2 times per week by measuring the lesion diameter with a vernier caliper. Mice were sacrificed by CO2 inhalation.
Parasite loads in the ears were determined as previously described. Briefly, the ventral and dorsal sheets of the infected ears were separated and deposited in RPMI containing 100 U/ml penicillin/100 μg/ml streptomycin and Liberase CI enzyme blend (Boehringer Mannheim, 0.5 mg/ml). Ears were incubated for 60 min at 37° C. The sheets were dissociated using a handheld tissue homogenizer. The homogenates were filtered using a 70 μm an cell strainer (BD Falcon, San Jose, Calif.) and serially diluted in a 96-well flat bottom microtiter plate containing biphasic medium prepared using 50 μl NNN medium containing 20% of defibrinated rabbit blood overlaid with 100 μl medium 199. The number of viable parasites in each ear was estimated from the highest dilution at which promastigotes could be grown out after 7 days of incubation at 26° C.

J774 cells = test: J774 cell activation, surface markers by flow cytometry; format: cell-based, murine; conditions: 10 and 100 μM, with or without L. major
Description: Because of the strong in vivo effect of PZA, we studied the effect of treatment on macrophages. First, we looked at activation markers and cytokine secretion by J774 cells (a murine macrophage cell line) following treatment with PZA (10 and 100 μM) in the presence or absence of L. major infection (1:5 macrophage:parasite ratio) were examined. As a positive control, cells were exposed to a mixture of IFN-γ and LPS, known to increase the level of activation. Expression of surface molecules was determined in unstimulated cells, and on infected, untreated cultures. Twenty-four hours after infection and/or treatment, cells were collected and stained with fluorescent antibodies against the co-stimulatory molecules CD80 and CD86, as well as MHC Class II, and analyzed by flow cytometry.
J774 cells or bone marrow-derived cells were seeded onto 24-well plates at a concentration of 5×10^5 cells/ml. Twenty-four hours later, PZA was added to the wells at different concentrations in the absence or presence of L. major (1:5 parasite ratio). In some experiments, J774 cells were treated with amphotericin B (0.1, 0.5, or 1 μg/ml). […] For each sample, at least 50,000 cells were analyzed. The data were collected and analyzed using CELLQuest software and a FACScalibur flow cytometer (Becton Dickinson, San Jose, Calif.).

Structure (SMILES)	activity at killing leishmanial species relative to PZA (Leishmania; old- and new-world leishmanial species in J774 cells) [fold]	MIC (Leishmania; variety of old- and new-world leishmanial species in J774 cells, 48 hr) [µM]	IL-10 production ([1]; infected with L. major (Lm))	IL-12 production ([1]; infected with L. major (Lm))	IL-10 production ([1]; uninfected)	IL-12 production ([1]; uninfected)	average lesion size compared to untreated controls (L. major; 5-Cl PZA oral, 150 mg/kg)	expression of costimulatory molecules CD80, CD86 and MHC Class II (J774 cells)	killing of Leishmania species (Leishmania; J774 cells infected with Leishmania, 48 hr post treatment (FIG. 8))	parasite burden in ears after healing (L. major; 12 weeks post infection)	average lesion size compared with untreated mice (L. major; PZA oral 900-150 mg/kg, four weeks, five days a week, all time points)	decrease of parasite burden in infected ears compared to untreated control (L. major; PZA oral, week 6 post infection) [fold]	body weight of experimental animals (L. major; mouse, in vivo)
NC(=O)c1cnc(Cl)cn1 [5-Cl PZA, 5-chloro pyrazinamide]	10	1 to 13	499 ± 312	1821 ± 645	415 ± 210	1767 ± 526	significant reduction in average lesion size	enhanced	–	–	–	–	–
NC(=O)c1cnccn1 [PZA, pyrazinamide]	–	–	199 ± 120	921 ± 445	155 ± 21	867 ± 546	–	increased expression	killed old-world and new-world VL leishmanial species	comparable among all experimental groups	significant (P=0.0001) reduction of the average lesion size	100	no significant differences in body weight
